Test results: patent publication US6166025A, “Pharmaceutical compositions containing eletriptran hemisulphate and caffeine” (Pfizer Inc., priority 1997, dated 2000)

What was measured:
[1] = Aqueous solubility; assay type: physicochemical; details: water, 4° C.
[2] = Stability of a solution in pH 8 aqueous buffer on standing for 12 weeks at 50° C.; assay type: physicochemical
[3] = aqueous solution; Higuchi et al. 1955; cited from earlier work

Compound | solubility [1] | number of degradation products detected by H.P.L.C. ([2]; H.P.L.C. techniques) | hydrolytic stability ([2]; aqueous solutions) | remaining at 2016 h ([2]; pH 8 aqueous buffer, 12 weeks at 50° C., read-out: eletriptan left (relative to the original weight)) | effect of caffeine on hydrolytic degradation [3]
CN1CCC[C@@H]1Cc1c[nH]c2ccc(CCS(=O)(=O)c3ccccc3)cc12 [Eletriptan hemisulphate] | > 100 mg/mL | At least five | hydrolytically unstable | < 85% | 
CCOC(=O)c1ccc(N)cc1 [benzocaine] |  |  |  |  | substantially reduces the hydrolytic degradation
